2 compounds from patent US11564920B2, “5-heteroaryl-1H-pyrazol-3-amine derivative” (Sumitomo Pharma Co., Ltd., priority 2020, dated 2023) can be followed below.

Like-named read-outs stand apart in the source and are kept apart here. Some results are limits rather than exact numbers.

The subject of data set [1] is ES-2 cells. Kind of data set: Cell growth suppression experiment. In kind it is cell-based. The conditions noted are these: for IC50: Homo sapiens, 48 h, cultured for 2 days, read-out: IC50 (cell growth suppression, ranking).
Data set [2] addresses CYP3A4 (Homo sapiens (Human), UniProt P08684). Nature of the data set: CYP3A4 MBI and enzyme inactivation clearance evaluation. In kind it is in vitro ADME. The conditions noted are these: human liver microsome. Here is the method: The effect and mode of inhibition of the test compound on CYP3A4 were evaluated using a human liver microsome as an enzyme source and midazolam or testosterone as a substrate. […] The IC50 value was calculated from a concentration plot.
(In general: Microsomes from liver hold many membrane-bound enzymes, among them those of drug oxidation.)

The subject of data set [3] is Human bone marrow CD34 positive hematopoietic stem cells. Kind of data set: Human bone marrow cell colony formation test (hemotoxicological evaluation test). In kind it is cell-based. The conditions noted are these: 100 nM; for Colony count (/well), mean: 48 hours, then about 2 weeks culture. The method, then: Human bone marrow CD34 positive hematopoietic stem cells were obtained from Lonza K. K. The frozen cells were thawed in a medium prepared by mixing a Methocult Express medium and a 10% fetal bovine serum with 1% penicillin/streptomycin containing RPMI 1640 medium at 9:1. 5000 cells were seeded per well in a 6 well plate and cultured overnight at […] in the presence of 5% CO2. The evaluated compound was added so that the final concentration of DMSO would be 0.1% and 100 nM, and the cells were cultured for 48 hours. The cells were retrieved and washed with PBS. ⅙ of the amount of cells was seeded in a 12 well plate and cultured for about. 2 weeks at 37° C. in the presence of 5% CO2. After completion of culture, the number of colonies formed was calculated using Thiazolyl blue tetrazolium bromide (MTT).

Data set [4] is described as follows: Liposome encapsulation test (Test Example 6). In kind it is physicochemical. Here is the method: 6.48 g of hydrogenated soybean phosphatidylcholine (COATSOME NC-21E, NOF Corporation), 2.32 g of cholesterol (Sigma) and 2.06 g of distearoylphosphatidylethanolamine-methoxypolyethylene glycol 2000 (SUNBRIGHT DSPE-020CN, NOF Corporation) were dissolved in 560 mL of t-butyl alcohol heated to 65° C. The solution was frozen with dry ice/acetone bath and t-butyl alcohol was then removed by evaporation under reduced pressure to obtain a lipid mixture.
200 mL of 250 mM ammonium sulfate solution was added to the lipid mixture. The resulting mixture was heated to 65° C. and dispersed with a homogenizer (ULTRA-TURRAX, IKA) to obtain a crude liposome dispersion. […] The prepared amount was increased or decreased appropriately.
2 to 3 mg of the test compound was weighed out. 1 mL of empty liposome solution with a total lipid concentration of 50 mM was added. An aqueous 1 mol/L hydrochloric acid or 1 mol/L sodium hydroxide solution was added to adjust the pH to 5.5 to 7. […] Insolubles, when present, were removed by centrifugation for 5 minutes at 15,000×g.
100 μL of liposome solution was passed through an ultrafiltration filter (Amicon Ultra, 100K, 0.5 mL, Merck), and centrifuged at 4° C. at 15,000×g for 10 minutes. The concentration of the compound in the filtrate after ultrafiltration was measured by HPLC as the unencapsulated compound concentration.
The liposome solution was diluted with a trifluoroacetic acid/water/methanol mixture (0.1/25/75) and was left standing for 10 minutes or longer at 5° C. The solution was centrifuged for 5 minutes at 15,000×g to remove insolubles. The compound concentration in the supernatant was measured by HPLC as the compound concentration in the liposome solution.
The encapsulation ratio and the encapsulation efficiency were calculated by the following equations. Encapsulation ratio (%)=(compound concentration in liposome solution−unencapsulated compound concentration)×100/compound concentration in liposome solution Encapsulation efficiency (%)=(compound concentration in liposome solution−unencapsulated compound concentration)×100/concentration upon compound introduction

Data set [5] relates to Human bone marrow CD34 positive hematopoietic stem cells. Kind of data set: Human bone marrow cell myeloid lineage differentiation induction test. Type of data set: cell-based. The conditions noted are these: 3 nM. The method, then: Human bone marrow CD34 positive hematopoietic stem cells were obtained from Lonza K. K. The frozen cells were thawed in a […] fetal bovine serum containing IMDM medium and suspended in a Complete hemaTox® Myeloid Medium. 1000 cells were seeded per well in a 96-well plate. The evaluated compound was added so that the final concentration of DMSO would be […] and 3 nM, and the cells were cultured for 7 days at 37° C. in the presence of 5% CO2. After completion of culture, half of the amount of cell suspension was retrieved from each well. The luminescence was measured using CellTiter-Glo® 3D Reagent (Promega, G968B) to calculate the cell survival percentage by the following equation. Cell survival percentage (%)=(measurement value of luminescence after 7 days of evaluated compound)/(measurement value of luminescence after 7 days of control group)×100

The target in data set [6] is MARK4 (Homo sapiens (Human), UniProt Q96L34). Kind of data set: Kinase selectivity test (HotSpot Full Panel Kinase profiling). Type of data set: biochemical. The conditions noted are these: 100 nM, ATP 10 μM; read-out: Residual activity (%) MARK4 (MARKA [sic] in Table 32). Here is the method:
(§1) Buffer: 20 mM HEPES, pH 7.5, 10 mM MgCl2, 2 mM […] (as needed), 1 mM EGTA, 0.02% Brij35, 0.02 mg/mL BSA, 0.1 mM Na3VO4, 2 mM DTT, 1% DMSO
(§2) Compound concentration: 100 nM

Data set [7] has as its target RSK1 (Homo sapiens (Human), UniProt Q15418). The description is as above. The conditions noted are these: 100 nM, ATP 10 μM; read-out: Residual activity (%) RSK1. In kind it is biochemical. Here is the method:
as §1, §2

The target in data set [8] is RSK3 (Homo sapiens (Human), UniProt Q15349). Described as above. In kind it is biochemical. The conditions noted are these: 100 nM, ATP 10 μM; read-out: Residual activity (%) RSK3. The method, then: as §1, §2
The target of data set [9] is RSK4 (Homo sapiens (Human), UniProt Q9UK32). The data set is described as above. In kind it is biochemical. The following applies: 100 nM, ATP 10 μM; read-out: Residual activity (%) RSK4. The method, then:
as §1, §2

Data set [10] concerns the target SIK2 (Homo sapiens (Human), UniProt Q9H0K1). Described as above. The conditions noted are these: 100 nM, ATP 10 μM; read-out: Residual activity (%) SIK2. In kind it is biochemical. The method, then: as §1, §2
In data set [11] the target is TNIK (Homo sapiens (Human), UniProt Q9UKE5). The data set is described as above. The following applies: 100 nM, ATP 10 μM; read-out: Residual activity (%) TNIK. Type of data set: biochemical. The method, then:
as §1, §2

The target in data set [12] is TRKC (Homo sapiens (Human), UniProt Q16288). Described as above. Type of data set: biochemical. The following applies: 100 nM, ATP 10 μM; read-out: Residual activity (%) TRKC. Here is the method:
as §1, §2

CYP3A4, sequence (P08684 whole entry): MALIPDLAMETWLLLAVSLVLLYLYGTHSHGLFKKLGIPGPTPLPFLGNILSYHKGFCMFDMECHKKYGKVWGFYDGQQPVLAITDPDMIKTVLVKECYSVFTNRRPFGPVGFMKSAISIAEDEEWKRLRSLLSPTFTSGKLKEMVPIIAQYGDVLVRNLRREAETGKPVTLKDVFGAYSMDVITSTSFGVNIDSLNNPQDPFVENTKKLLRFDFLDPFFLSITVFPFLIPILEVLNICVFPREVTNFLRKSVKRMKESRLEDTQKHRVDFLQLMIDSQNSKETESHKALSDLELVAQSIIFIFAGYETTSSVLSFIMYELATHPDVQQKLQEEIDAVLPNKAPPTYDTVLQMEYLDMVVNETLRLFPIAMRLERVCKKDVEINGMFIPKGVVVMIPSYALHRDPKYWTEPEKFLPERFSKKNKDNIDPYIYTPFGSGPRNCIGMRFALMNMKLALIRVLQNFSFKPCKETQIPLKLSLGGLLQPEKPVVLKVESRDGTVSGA
RSK1, sequence (Q15418 whole entry): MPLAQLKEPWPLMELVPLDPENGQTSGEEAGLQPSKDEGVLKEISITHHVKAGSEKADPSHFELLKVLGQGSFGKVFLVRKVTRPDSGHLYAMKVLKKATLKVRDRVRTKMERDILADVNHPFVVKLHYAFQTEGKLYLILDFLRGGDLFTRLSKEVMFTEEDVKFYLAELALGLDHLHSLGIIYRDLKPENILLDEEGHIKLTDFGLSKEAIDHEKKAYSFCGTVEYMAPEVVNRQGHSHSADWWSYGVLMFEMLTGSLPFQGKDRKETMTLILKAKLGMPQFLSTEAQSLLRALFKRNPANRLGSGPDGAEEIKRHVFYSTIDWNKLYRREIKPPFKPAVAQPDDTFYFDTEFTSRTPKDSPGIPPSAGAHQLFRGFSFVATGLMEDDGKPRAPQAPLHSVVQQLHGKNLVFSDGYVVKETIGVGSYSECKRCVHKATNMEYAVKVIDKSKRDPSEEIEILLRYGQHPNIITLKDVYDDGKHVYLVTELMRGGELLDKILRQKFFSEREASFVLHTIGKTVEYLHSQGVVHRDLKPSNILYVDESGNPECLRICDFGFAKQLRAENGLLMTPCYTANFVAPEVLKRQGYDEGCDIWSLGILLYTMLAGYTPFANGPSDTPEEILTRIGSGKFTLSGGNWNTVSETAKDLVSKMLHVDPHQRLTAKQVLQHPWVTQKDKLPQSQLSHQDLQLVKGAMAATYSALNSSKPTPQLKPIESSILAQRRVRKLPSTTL
TRKC, sequence (Q16288 32-839): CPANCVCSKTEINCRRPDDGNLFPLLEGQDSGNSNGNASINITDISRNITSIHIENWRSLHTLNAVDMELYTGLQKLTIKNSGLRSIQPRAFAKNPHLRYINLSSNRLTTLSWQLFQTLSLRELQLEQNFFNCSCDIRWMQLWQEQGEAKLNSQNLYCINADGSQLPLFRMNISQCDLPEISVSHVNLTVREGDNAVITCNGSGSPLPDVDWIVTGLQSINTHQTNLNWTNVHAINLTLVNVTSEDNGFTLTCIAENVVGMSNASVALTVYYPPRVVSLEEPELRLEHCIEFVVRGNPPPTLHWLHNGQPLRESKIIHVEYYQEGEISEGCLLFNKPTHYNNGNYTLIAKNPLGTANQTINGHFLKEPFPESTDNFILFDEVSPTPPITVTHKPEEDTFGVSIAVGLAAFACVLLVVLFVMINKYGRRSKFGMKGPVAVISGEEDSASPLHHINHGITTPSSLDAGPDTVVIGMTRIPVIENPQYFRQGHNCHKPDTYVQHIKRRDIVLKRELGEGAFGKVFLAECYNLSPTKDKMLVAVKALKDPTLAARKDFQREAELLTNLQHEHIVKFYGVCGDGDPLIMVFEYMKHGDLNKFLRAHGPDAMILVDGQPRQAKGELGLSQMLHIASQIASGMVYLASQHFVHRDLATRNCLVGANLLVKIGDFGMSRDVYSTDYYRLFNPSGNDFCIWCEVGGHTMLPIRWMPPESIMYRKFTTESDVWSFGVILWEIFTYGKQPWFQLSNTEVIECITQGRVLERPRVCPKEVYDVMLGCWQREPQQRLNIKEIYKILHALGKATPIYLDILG
SIK2, sequence (Q9H0K1 whole entry): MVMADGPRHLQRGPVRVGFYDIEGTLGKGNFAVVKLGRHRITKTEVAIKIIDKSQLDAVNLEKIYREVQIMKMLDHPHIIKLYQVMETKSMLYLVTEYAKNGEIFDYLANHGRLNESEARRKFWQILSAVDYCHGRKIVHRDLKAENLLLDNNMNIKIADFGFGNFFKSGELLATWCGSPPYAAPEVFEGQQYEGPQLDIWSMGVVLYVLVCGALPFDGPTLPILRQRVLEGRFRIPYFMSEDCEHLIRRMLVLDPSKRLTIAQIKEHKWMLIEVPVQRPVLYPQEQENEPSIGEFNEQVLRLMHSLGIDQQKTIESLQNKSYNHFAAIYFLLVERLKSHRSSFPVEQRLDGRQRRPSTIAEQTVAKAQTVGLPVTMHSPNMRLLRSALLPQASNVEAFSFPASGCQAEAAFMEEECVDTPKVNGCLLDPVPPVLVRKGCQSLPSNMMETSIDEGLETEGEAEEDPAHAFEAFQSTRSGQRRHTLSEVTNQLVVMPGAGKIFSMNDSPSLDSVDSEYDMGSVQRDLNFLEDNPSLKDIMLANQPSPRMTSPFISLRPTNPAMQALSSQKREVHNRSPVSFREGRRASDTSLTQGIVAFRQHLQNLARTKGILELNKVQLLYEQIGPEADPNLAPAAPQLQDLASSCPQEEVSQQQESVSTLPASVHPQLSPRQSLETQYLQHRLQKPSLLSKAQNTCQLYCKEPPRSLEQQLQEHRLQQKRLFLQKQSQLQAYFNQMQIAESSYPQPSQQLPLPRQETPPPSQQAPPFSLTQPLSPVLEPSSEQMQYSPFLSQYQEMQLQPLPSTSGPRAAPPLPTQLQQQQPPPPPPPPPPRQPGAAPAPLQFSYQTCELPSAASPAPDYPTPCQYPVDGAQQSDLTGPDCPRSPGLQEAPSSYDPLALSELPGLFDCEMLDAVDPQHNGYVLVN
MARK4, sequence (Q96L34 whole entry): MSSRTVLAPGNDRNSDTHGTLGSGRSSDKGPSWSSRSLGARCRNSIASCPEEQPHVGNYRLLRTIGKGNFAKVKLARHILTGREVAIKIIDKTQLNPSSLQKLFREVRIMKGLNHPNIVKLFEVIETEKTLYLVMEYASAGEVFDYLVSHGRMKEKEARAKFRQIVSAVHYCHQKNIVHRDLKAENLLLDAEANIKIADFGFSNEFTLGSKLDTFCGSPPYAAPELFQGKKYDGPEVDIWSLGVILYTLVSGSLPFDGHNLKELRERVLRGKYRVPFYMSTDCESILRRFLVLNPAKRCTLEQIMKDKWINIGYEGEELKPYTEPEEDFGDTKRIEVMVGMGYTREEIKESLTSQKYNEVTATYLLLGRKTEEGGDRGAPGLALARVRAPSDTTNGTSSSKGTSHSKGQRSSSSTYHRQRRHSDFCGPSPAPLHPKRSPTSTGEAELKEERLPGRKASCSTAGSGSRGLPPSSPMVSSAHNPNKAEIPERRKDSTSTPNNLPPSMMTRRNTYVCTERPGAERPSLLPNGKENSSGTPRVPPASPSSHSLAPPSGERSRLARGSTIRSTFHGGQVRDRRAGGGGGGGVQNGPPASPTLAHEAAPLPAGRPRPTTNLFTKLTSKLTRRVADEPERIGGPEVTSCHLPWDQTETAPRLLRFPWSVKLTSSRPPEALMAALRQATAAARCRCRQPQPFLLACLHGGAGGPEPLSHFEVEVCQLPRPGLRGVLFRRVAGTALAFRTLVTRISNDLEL
TNIK, sequence (Q9UKE5 whole entry): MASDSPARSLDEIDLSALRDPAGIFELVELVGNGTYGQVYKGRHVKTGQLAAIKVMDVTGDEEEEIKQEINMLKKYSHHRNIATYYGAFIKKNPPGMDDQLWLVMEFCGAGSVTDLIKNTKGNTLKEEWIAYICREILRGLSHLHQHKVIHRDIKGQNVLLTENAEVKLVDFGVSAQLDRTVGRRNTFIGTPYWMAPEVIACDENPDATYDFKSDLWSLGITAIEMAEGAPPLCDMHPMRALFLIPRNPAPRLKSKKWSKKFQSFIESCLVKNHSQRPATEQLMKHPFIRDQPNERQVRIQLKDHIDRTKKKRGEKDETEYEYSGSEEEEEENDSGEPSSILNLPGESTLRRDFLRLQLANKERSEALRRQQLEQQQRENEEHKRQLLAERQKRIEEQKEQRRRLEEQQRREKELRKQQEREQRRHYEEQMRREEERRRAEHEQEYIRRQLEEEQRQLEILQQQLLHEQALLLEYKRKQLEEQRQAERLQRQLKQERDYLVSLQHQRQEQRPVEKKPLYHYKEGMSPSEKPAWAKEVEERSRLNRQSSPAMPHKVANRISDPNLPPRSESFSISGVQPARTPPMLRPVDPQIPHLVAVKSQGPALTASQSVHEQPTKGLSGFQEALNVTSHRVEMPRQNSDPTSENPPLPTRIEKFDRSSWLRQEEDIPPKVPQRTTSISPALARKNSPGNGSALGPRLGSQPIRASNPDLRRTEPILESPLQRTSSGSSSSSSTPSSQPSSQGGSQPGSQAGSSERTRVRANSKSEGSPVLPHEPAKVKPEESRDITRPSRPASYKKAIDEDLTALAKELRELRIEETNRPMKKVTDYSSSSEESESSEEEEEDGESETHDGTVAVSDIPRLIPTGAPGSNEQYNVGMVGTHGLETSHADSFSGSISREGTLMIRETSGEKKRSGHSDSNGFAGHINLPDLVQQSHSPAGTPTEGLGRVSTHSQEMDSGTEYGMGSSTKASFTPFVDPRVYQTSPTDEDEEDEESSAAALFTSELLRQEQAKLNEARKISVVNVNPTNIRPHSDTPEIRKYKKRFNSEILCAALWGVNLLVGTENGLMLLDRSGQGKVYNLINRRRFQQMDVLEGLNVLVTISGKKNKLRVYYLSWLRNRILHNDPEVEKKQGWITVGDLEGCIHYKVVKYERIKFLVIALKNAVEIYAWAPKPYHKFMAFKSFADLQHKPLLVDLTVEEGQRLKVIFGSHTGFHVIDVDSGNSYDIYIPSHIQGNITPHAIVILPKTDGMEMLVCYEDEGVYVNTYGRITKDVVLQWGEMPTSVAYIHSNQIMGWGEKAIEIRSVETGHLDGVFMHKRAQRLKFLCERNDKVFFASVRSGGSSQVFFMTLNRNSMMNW

With `COc1ccnc(OCCCN)c1-c1cc(Nc2cnc(C#N)cn2)n[nH]1` [Example 1, 5-({5-[2-(3-aminopropoxy)-4-methoxypyridin-3-yl]-1H-pyrazol-3-yl}amino)pyrazine-2-carbonitrile], in data set [1], the IC50 (as a rule, the concentration that inhibits the measured activity by half) was below 30 nM. Also, the “cell growth suppression effect (in words)” value in data set [1] (compared with prexasertib) is given as “excellent cell growth suppression effect that is equivalent to that of prexasertib”. Further, the “Factor of change in IC50 value” in [2] (by pre-incubation with NADPH, MBI action when 2-fold or greater) was “Not Detected”. Further, the “inhibition of CYP3A4 based on MBI (in words)” value in data set [2] is “do not exhibit inhibition of CYP3A4 based on MBI”. The “effect on human bone marrow cell colony formation (in words)” value in data set [3] is “does not exhibit an effect of suppressing human bone marrow colony formation”. Further, in [3], the “Colony count (/well), mean” value is 34 /well. The “Encapsulation efficiency” value is given as at least 80% in [4] and 87.4% in data set [4] (concentration upon compound introduction 3 mg/mL). Further, in data set [4] (pH adjusted by adding 1 mol/L hydrochloric acid), the “liquid viscosity during the liposome encapsulation procedure” value is given as “increase in viscosity was not found”. In addition, in [5], the “effect on myeloid cells induced to differentiate from human bone marrow cells (in words)” value was “does not exhibit an effect of suppressing myeloid cells induced to differentiate from human bone marrow cells”. Moreover, the remaining activity at 0.1 µM in data set [6] came out at 24.1%; in data set [7], 8.51%; in data set [8], 3.91%; in [9], 9.05%; in data set [10], 14.1%; in data set [11], 17.8%. In addition, the remaining activity at 0.1 µM in [12] came to 17.4%.
Turning to `COc1cccc(OCCCN)c1-c1cc(Nc2cnc(C#N)cn2)n[nH]1` [Prexasertib, reference compound], the IC50 in data set [1] was below 30 nM. The “inhibition of CYP3A4 based on MBI (in words)” value in data set [2] is “exhibits inhibition of CYP3A4 based on MBI”. For the same compound, the microsomal CLint (as a rule, a measure of how fast metabolising enzymes remove a compound, apart from limits set by blood flow) in data set [2] (liver microsomes, probe midazolam or testosterone) is 0.019 µL/min/mg. The “effect on human bone marrow cell colony formation (in words)” value in data set [3] was “exhibits an effect of suppressing human bone marrow cell colony formation”. Moreover, in [3], the “Colony count (/well), mean” value is recorded as 19 /well. In addition, the “Compound concentration in liposome solution” value in data set [4] (concentration upon compound introduction 2 mg/mL) amounted to 2160 µg/mL. Besides, the “effect on myeloid cells induced to differentiate from human bone marrow cells (in words)” value in data set [5] was “exhibited an effect of suppressing myeloid cells induced to differentiate from human bone marrow cells”. Moreover, the remaining activity at 0.1 µM in data set [6] is 10.2%; in data set [7], 2.23%; in [8] it was 1.69%; in data set [9] it was 4.78%; in data set [10], 2.62%; in [11], 7.76%. Moreover, the remaining activity at 0.1 µM in data set [12] amounted to 12.7%.
